Assay results as given in ChEMBL document CHEMBL6134773, “Metal-free synthesis of N-fused quinazolino-quinazoline-diones as a MALAT1 RNA triple helix intercalator” (RSC Med Chem, 2025).
Activity calls are given as the source filed them. No cut-off for these calls is given here.

What was measured:
[1] = tested on: SK-OV-3; test: Cytotoxicity against human SK-OV-3 cells; type: functional, cell-based
[2] = tested on: MALAT1 triple helix RNA; test: Binding affinity to MALAT1 triple helix RNA (unknown origin) assessed as RNA intercalation by measuring change in fluorescence intensity by fluorescence-based screening assay; type: nucleic-acid assay
[3] = biological target: DNA; test: Binding affinity to dsDNA (unknown origin) by fluorescence-based screening assay; type: nucleic-acid assay
[4] = biological target: MALAT1 triple helix RNA; test: Binding affinity to MALAT1 triple helix RNA (unknown origin) by fluorescence-based screening assay; type: nucleic-acid assay
[5] = tested on: DNA; test: Binding affinity to dsDNA (unknown origin) assessed as DNA intercalation by measuring change in fluorescence intensity by fluorescence-based screening assay; type: nucleic-acid assay
[6] = tested on: MCF7; test: Cytotoxicity against human MCF7 cells assessed as cell viability incubated for 48 hrs; type: functional, cell-based; conditions: MCF7, 48 h
[7] = tested on: HeLa; test: Cytotoxicity against human HeLa cells; type: functional, cell-based
[8] = tested on: MALAT1 triple helix RNA; test: Binding affinity to MALAT1 triple helix RNA (unknown origin) assessed as […] by measuring conformational change at 2.5 to 5.0 uM at 25 to 65 degreeC by temperature dependent CD analysis; type: nucleic-acid assay; conditions: dose 2.5-5 µM
[9] = tested on: L929; test: Cytotoxicity against mouse L929 cells; type: toxicity, cell-based

| Structure (SMILES) | EC50 [4] [nM] | deltaFI [5] | also measured |
| --- | --- | --- | --- |
| COc1cccc2c1C(=O)c1c(O)c3c(c(O)c1C2=O)C[C@@](O)(C(=O)CO)C[C@@H]3O[C@H]1C[C@H](N)[C@H](O)[C@H](C)O1 [DOXORUBICIN] | – | – | IC50 [1]: 534 nM |
| O=c1c2ccccc2n2c(=O)c3ccccc3nc2n1Cc1cccc(C(F)(F)F)c1 | 800 | 0.76 | deltaFI [2]: 0.504; EC50 [3]: 1000 nM |
| O=c1c2ccccc2n2c(=O)c3ccccc3nc2n1Cc1ccc([N+](=O)[O-])cc1 | – | 0.079 | – |
| COC(=O)c1ccc(Cn2c(=O)c3ccccc3n3c(=O)c4ccccc4nc23)cc1 | – | 0.426 | – |
| O=c1c2ccccc2n2c(=O)c3ccccc3nc2n1Cc1cccc2ccccc12 | – | 0.014 | – |
| N#Cc1ccc(Cn2c(=O)c3ccccc3n3c(=O)c4ccccc4nc23)cc1 | – | 0.172 | – |
| N=C(N)c1ccc(-c2ccc(-c3ccc(C(=N)N)cc3)o2)cc1 [FURAMIDINE] | 600 | – | IC50 [6]: 90000 nM |
| O=c1c2ccccc2n2c(=O)c3ccccc3nc2n1Cc1ccc(OC(F)(F)F)cc1 | – | 0.29 | – |
| O=c1c2ccccc2n2c(=O)c3ccccc3nc2n1-c1ccc(C(F)(F)F)cc1 | – | 0.084 | – |
| O=c1c2ccccc2n2c(=O)c3ccccc3nc2n1CCCn1c(=O)c2ccccc2n2c(=O)c3ccccc3nc12 | 1100 | 1 | IC50 [1]: 8000 nM; deltaFI [2]: 1; IC50 [7]: 63200 nM; EC50 [3]: 1400 nM; Activity [8]: Active; Activity [9]: Non-toxic |
